This is an account of results in PMC12118337, “Development of a Peptide Inhibitor Targeting the C‐SH2 Domain of the SHP2 Phosphatase” (Chembiochem, 2025).

One series deals with T1, full‐length SHP2 (Homo sapiens, UniProt Q06124).
T1 construct: 1–525) proteins were prepared; His-SUMO3 (pETM11-SUMO3 vector) (N, cleaved yes); made in house; host or cells: E. coli BL21(DE3)
T1 sequence (Q06124 1-525): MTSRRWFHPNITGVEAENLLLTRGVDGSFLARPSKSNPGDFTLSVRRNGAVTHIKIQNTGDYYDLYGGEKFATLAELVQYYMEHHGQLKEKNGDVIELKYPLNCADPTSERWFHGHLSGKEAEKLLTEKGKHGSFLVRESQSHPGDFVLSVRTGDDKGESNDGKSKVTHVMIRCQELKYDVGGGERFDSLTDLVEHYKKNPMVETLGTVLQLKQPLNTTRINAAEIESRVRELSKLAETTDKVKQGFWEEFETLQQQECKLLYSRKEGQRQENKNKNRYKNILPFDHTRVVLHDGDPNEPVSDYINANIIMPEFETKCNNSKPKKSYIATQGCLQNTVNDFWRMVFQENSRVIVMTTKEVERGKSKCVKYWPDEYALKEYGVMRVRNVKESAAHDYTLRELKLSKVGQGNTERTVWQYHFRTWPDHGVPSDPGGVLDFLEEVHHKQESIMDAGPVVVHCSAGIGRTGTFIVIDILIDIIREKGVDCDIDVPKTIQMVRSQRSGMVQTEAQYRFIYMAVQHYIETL
In words: DiFMUP phosphatase assay, peptide activation (no activator). In kind it is biochemical. As to conditions: 0.5 nM full-length SHP2, no tandem activator, peptide 0.096 nM – 51.2 µM. On the procedure: 6. DiFMUP phosphatase assays
SHP2 dephosphorylation of the fluorogenic substrate 6,8-difluoro-4-methylumbiliferyl phosphate (DiFMUP) was measured to evaluate the effect of acetylated peptides on SHP2 activity. Final concentrations of 0.5 nM full-length SHP2, 200 µM DiFMUP (Invitrogen) and 26 nM bisphosphorylated tandem ITIM-[dPEG4]2-ITSM (CASLO ApS) were used, unless stated otherwise, per well in 96-well plates (OptiPlate-96 F Black; PerkinElmer). For peptide activation assays, each well contained 60 µL of reaction buffer (50 mM HEPES pH 7.6, 150 mM NaCl, 1 mM EDTA, 0.05% Tween 20, freshly added 5 mM DTT), 10 µL of SHP2 and 20 µL of the test peptide (0.096 nM – 51.2 µM final concentration). For peptide inhibition assays in the presence of a SHP2 activator, each well contained 40 µL of reaction buffer (50 mM HEPES pH 7.6, 150 mM NaCl, 1 mM EDTA, 0.05% Tween 20, freshly added 5 mM DTT), 10 µL of SHP2 and 40 µL of previously mixed bisphosphorylated tandem ITIM-[dPEG4]2-ITSM activator and test peptide (0.096 nM – 51.2 µM or 0.376 nM – 200 µM final concentration). […] The fluorescence was immediately measured on a Synergy H1 Microplate Reader (BioTek) with the excitation and emission monitored at 358 nm and 452 nm, respectively, over 30 minutes. Data were analysed in Excel 2016 by subtracting background values from emission values and calculating the slope of the emission profiles. […]

The next series deals with T2, SHP2 N‐SH2 domain (Homo sapiens, UniProt Q06124).
T2 construct: SHP2 N-SH2 domain (1–105), C-SH2 domain (106–220), PTP domain (224–541) and; His6 (pETM22 vector) (N, cleaved yes); made in house; host or cells: E. coli BL21(DE3)
T2 sequence (Q06124 1-105): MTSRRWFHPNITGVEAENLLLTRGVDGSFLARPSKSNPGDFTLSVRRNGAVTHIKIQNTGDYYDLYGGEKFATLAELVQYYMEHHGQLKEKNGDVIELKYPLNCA
Put plainly: Isothermal titration calorimetry (ITC), SHP2 N-SH2 domain. The following applies: 20 mM Tris-HCl pH 7.6, 150 mM NaCl, 1:1 stoichiometry assumed, one experiment, read-out: K D, N‐SH2 (ITC). The class given is binding. The protocol:
(§1) concentration of 100 nM in a final volume of 200 µL. For baseline subtraction, each peptide was added to FP buffer, instead of protein, with a final peptide concentration of 100 nM in a final volume of 200 µL. Samples were mixed gently then 3 x 60 µL of each sample was transferred into triplicate wells in a 96-well plate (OptiPlate-96 F Black; PerkinElmer). The FP was immediately measured on a Synergy H1 Microplate Reader (BioTek) with the excitation and emission monitored at 485 nm and 528 nm, respectively, over 30 minutes. FP values were automatically calculated by the Gen5 3.03 (BioTek) software associated with the microplate reader. Data were analysed in Excel 2016 by subtracting baseline values from FP values at 10 minutes. Data were then further analysed in GraphPad Prism 6 by plotting the baseline subtracted FP values against the protein concentration and fitting the data to a variable slope model of non-linear regression to obtain the KD values. Data are from three independent experiments, each performed in technical triplicates.
(§2) 5. Isothermal titration calorimetry
(§3) Isothermal titration calorimetry (ITC) was used to measure the binding of the Ac-ITSM(pTyr) to the SHP2 C-SH2 or N-SH2 domain. […]
A general note: ITC needs no label: the signal is the heat of the interaction.

For another series, the target named is T3, SHP2 C‐SH2 domain (Homo sapiens, UniProt Q06124).
T3 construct: SHP2 N-SH2 domain (1–105), C-SH2 domain (106–220), PTP domain (224–541) and; His6 (pETM22 vector) (N, cleaved yes); made in house; host or cells: E. coli BL21(DE3)
T3 sequence (Q06124 106-220): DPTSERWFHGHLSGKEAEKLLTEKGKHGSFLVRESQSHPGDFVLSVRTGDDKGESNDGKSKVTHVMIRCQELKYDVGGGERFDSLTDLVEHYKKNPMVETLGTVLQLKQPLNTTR
In words: Isothermal titration calorimetry (ITC), SHP2 C-SH2 domain. In kind it is binding. The following applies: 20 mM Tris-HCl pH 7.6, 150 mM NaCl, 1:1 stoichiometry assumed, one experiment, read-out: K D, C‐SH2 (ITC). On the procedure:
as §1, §2, §3

For the next series, the system named is WT HeLa cells. The following applies: CCK-8, 100–300 µM, 16 h; three or four independent experiments in technical triplicates. The protocol:
(§4) three or four independent experiments with 4 – 7 images taken per well in each […]
(§5) 7. Peptide cytotoxicity assays
(§6) The cytotoxicity of acetylated peptide 29 in WT Jurkat T cells and WT HeLa cells was determined using Cell Counting Kit-8 (CCK-8). Jurkat cells were seeded at 5 x 10^4 cells/well and HeLa cells were seeded at 5 x 10^3 cells/well in 96-well flat-bottom cell culture plates (Greiner Bio-One). HeLa cells were allowed to adhere overnight at 37°C […]
(§7) 200 µM for Jurkat cells and 100 µM, 200 µM or 300 µM for HeLa cells in a total volume of 100 µL, each concentration in triplicate wells. In addition, three wells containing media alone as the background, three wells containing vehicle (H2O) treated cells as the negative control and three wells containing cells treated with 5% DMSO (Jurkat cells) or 20% DMSO (HeLa cells) to induce cell death as the positive control, were included in the plate. Cells were incubated with the peptide or controls for 24 hours (Jurkat cells) or 16 hours (HeLa cells) at 37°C and 5% CO2, then 10 µL of CCK-8 solution (Sigma-Aldrich) was added to each well and incubated for 1.5 hours at 37°C

The test system of another series is WT Jurkat T cells. The following applies: CCK-8, 50–200 μM, 24 h; four independent experiments in technical triplicates. On the procedure:
as §4, §5, §6, §7

Each structure is given as a SMILES string. Non-standard residues stand in square brackets, D forms with d. Residues, ends and D or L forms follow the SMILES beside them. *: point of attachment. pY = N[C@@H](Cc1ccc(OP(=O)(O)O)cc1)C(=O)O; AEEA = NCCOCCOCC(=O)O; X1 = O=C(O)C(C(=O)O)*

On to `CC[C@H](C)[C@H](NC(=O)[C@@H](NC(=O)[C@H](C)NC(=O)[C@H](Cc1ccc(OP(=O)(O)O)cc1)NC(=O)[C@H](CCC(=O)O)NC(=O)[C@@H](NC(=O)[C@H](CCC(N)=O)NC(=O)[C@H](CCC(=O)O)NC(C)=O)[C@@H](C)O)[C@@H](C)O)C(=O)N[C@H](C(=O)N[C@@H](Cc1ccccc1)C(=O)N1CCC[C@H]1C(N)=O)C(C)C` [Ac‐ITSM(pTyr)] (Ac-EQTE[pY]ATIVFP-NH2), for which, at full‐length SHP2, the “SHP2 phosphatase activity with peptide alone (activation)” value was “increased”. The Kd at SHP2 N‐SH2 domain stood at 106 nM; at SHP2 C‐SH2 domain, 58.8 nM.

Consider `CC[C@H](C)[C@H](NC(=O)[C@@H](NC(=O)[C@H](C)NC(=O)[C@H](Cc1ccc(OC(C(=O)O)C(=O)O)cc1)NC(=O)[C@H](CCC(=O)O)NC(=O)[C@@H](NC(=O)[C@H](CCC(N)=O)NC(=O)COCCOCCNC(=O)[C@@H](CCCNC(=N)N)NC(=O)[C@@H](CCCNC(=N)N)NC(=O)[C@@H](CCCNC(=N)N)NC(=O)[C@@H](CCCNC(=N)N)NC(=O)[C@@H](CCCNC(=N)N)NC(=O)[C@@H](CCCNC(=N)N)NC(=O)[C@@H](CCCNC(=N)N)NC(=O)[C@@H](CCCNC(=N)N)NC(C)=O)[C@@H](C)O)[C@@H](C)O)C(=O)N[C@@H](CCCCN)C(=O)N[C@@H](Cc1c[nH]cn1)C(=O)N1CCC[C@H]1C(N)=O` [peptide 29] (Ac-[dR][dR][dR][dR][dR][dR][dR][dR][AEEA]QTEY(X1)ATIKHP-NH2), for which the “cytotoxicity (viability) in HeLa cells” value in the series with WT HeLa cells is “no toxicity”. The “cytotoxicity (viability) in Jurkat cells” value in the series on WT Jurkat T cells was “only started showing a trend toward some toxicity at the highest concentration of 200 μM”.
